Source: patent US20070149404A1, “Microbicidal compositions” (BASF AKTIENGESELLSCHAFT, priority 2003, published 2007)

Key:
Candida albicans = assay: Intrinsic activity, microtitre plate method, CA; type: cell-based; parameters: key: rating 0 = no activity to 5 = biostatic, may be biocide
Protocol: (§1) The chemistries were tested for their activity against a range of organisms via a microtitre plate method. The test organisms were: • ML—Micrococcus luteus • SA—Staphylococcus aureus • EC—Escherichia coli • PA—Pseudomonas aeruginosa • CF—Citrobacter freundii • PM—Proteus mirabilis • CA—Candida albicans • SC—Saccharomyces cerevisiae • AN—Aspergillus niger • PF—Penicillium funiculosum • AA—Alternaria alternata
(§2) Using the following rating scale: • 0=no activity • 1=minimal inhibition • 2=inhibition • 3=clear inhibition • 4=clear inhibition biostatic, may be biocide activity • 5=biostatic, may be biocide activity
(§3) Readings of 4 and possibly 3 were considered to be valid for biocidal applications.

Staphylococcus aureus = assay: Intrinsic activity, microtitre plate method, SA; type: cell-based; parameters: key: 0 = no activity to 5 = biostatic, may be biocide activity
Protocol: as §1, §2, §3

Saccharomyces cerevisiae = assay: Intrinsic activity, microtitre plate method, SC; type: cell-based; parameters: key: rating 0 = no activity to 5 = biostatic, may be biocide
Protocol: as §1, §2, §3

Bacteria = assay: Intrinsic activity, microtitre plate method, mean score over bacteria; type: cell-based, ML, SA, EC, PA, CF, PM; details: performance against organisms/no of organisms, 0 to <3 poor, >3 inhibition, >4 biostasis, biocidal activity
Protocol: as §1, §2, §3

Micrococcus luteus = assay: Intrinsic activity, microtitre plate method, ML; type: cell-based; parameters: key: rating 0 = no activity to 5 = biostatic, may be biocide
Protocol: as §1, §2, §3

Aspergillus niger = assay: Intrinsic activity, microtitre plate method, AN; type: cell-based; parameters: key: rating 0 = no activity to 5 = biostatic, may be biocide
Protocol: as §1, §2, §3

Proteus mirabilis = assay: Intrinsic activity, microtitre plate method, PM; type: cell-based; parameters: key: rating 0 = no activity to 5 = biostatic, may be biocide
Protocol: as §1, §2, §3

[1] = Solubility in water at room temperature
Escherichia coli = assay: Intrinsic activity, microtitre plate method, EC; type: cell-based; parameters: key: rating 0 = no activity to 5 = biostatic, may be biocide
Protocol: as §1, §2, §3

Penicillium funiculosum = assay: Intrinsic activity, microtitre plate method, PF; type: cell-based; parameters: key: rating 0 = no activity to 5 = biostatic, may be biocide
Protocol: as §1, §2, §3

Fungi [2] = assay: Intrinsic activity, microtitre plate method, mean score over fungi; type: cell-based, CA, SC, AN, PF, AA; details: performance against organisms/no of organisms, 0 to <3 poor, >3 inhibition, >4 biostasis, biocidal activity
Protocol: as §1, §2, §3

Citrobacter freundii = assay: Intrinsic activity, microtitre plate method, CF; type: cell-based; parameters: key: rating 0 = no activity to 5 = biostatic, may be biocide
Protocol: as §1, §2, §3

Alternaria alternata = assay: Intrinsic activity, microtitre plate method, AA; type: cell-based; parameters: key: rating 0 = no activity to 5 = biostatic, may be biocide
Protocol: as §1, §2, §3

Pseudomonas aeruginosa = assay: Intrinsic activity, microtitre plate method, PA; type: cell-based; parameters: key: rating 0 = no activity to 5 = biostatic, may be biocide
Protocol: as §1, §2, §3

test bacteria and fungi = assay: Intrinsic activity against bacteria and fungi, microtitre plate method, summary in words; type: cell-based; details: at both concentrations (1000 and 500 ppm a.i.)
Protocol: as §1, §2, §3

fungi [3] = assay: Efficacy against fungal growth on painted wooden surface (BS3900 G6); type: cell-based; details: 0.5% in paint
Protocol: (§4) Testing was performed according to the BS3900 G6 and BBA MOAT 33 methods for evaluation versus fungi and algae, respectively. The methods involve painting a substrate panel with the coating and leaching under running water for 72 hours. The substrates are incubated for 56 days after being inoculated with fungi or algae. Performance is judged by comparing with suitable control samples ie without biocide, a positive control and for fungi with substrate panels that have not been leached.
(§5) Performance rating on painted test substrates (Score of 0, 1 and 2 is considered as a pass) • 0=no growth • 1=trace of growth • 2=growth on 1-10% of test face • 3=growth on 10-30% of test face • 4=growth on 30-70% of test face
(§6) 5=growth on 70-100% of test face.

fungi [4] = assay: Efficacy against fungal growth on painted plaster surface (BS3900 G6); type: cell-based; details: 0.5% in paint; for MEAN FUNGAL GROWTH RATING - PLASTER SUBSTRATE 28 days leached / MEAN FUNGAL GROWTH RATING - PLASTER SUBSTRATE 56 days leached: constant running water for 72 hours; for MEAN FUNGAL GROWTH RATING - PLASTER SUBSTRATE 28 days leached / MEAN FUNGAL GROWTH RATING - PLASTER SUBSTRATE 56 days leached / MEAN FUNGAL GROWTH RATING - PLASTER SUBSTRATE 28 days as applied / MEAN FUNGAL GROWTH RATING - PLASTER SUBSTRATE 56 days as applied: mean of ratings 0-5; for % Improved After 56 days leached (fungal, plaster): leached 72 hours; for % Improved After 56 days leached (fungal, plaster) / % Improved After 56 days as applied (fungal, plaster): versus unpreserved paint; for MEAN FUNGAL GROWTH RATING - PLASTER SUBSTRATE 28 days as applied / MEAN FUNGAL GROWTH RATING - PLASTER SUBSTRATE 56 days as applied: no leaching with water; for % Improved After 56 days as applied (fungal, plaster): no leaching
Protocol: as §4, with “The substrates are incubated for 56 days after being inoculated with fungi or algae.” left out
as §5, §6

algae = assay: Efficacy against algal growth on painted plaster surface (BBA MOAT 33); type: cell-based; details: 0.5% in paint; for MEAN ALGAL GROWTH RATING 28 days / MEAN ALGAL GROWTH RATING 56 days / % Improved after 56 days (algal growth): painted plaster; for MEAN ALGAL GROWTH RATING 28 days / MEAN ALGAL GROWTH RATING 56 days: leached 72 hours, mean of ratings 0-5; for MEAN ALGAL GROWTH RATING 28 days: 28 days after inoculation; for MEAN ALGAL GROWTH RATING 56 days: 56 days after inoculation; for % Improved after 56 days (algal growth): versus unpreserved paint
Protocol: as §4, §5, §6

Row | Compound | CA rating (Candida albicans; 500 ppm a.i.) | CA rating (Candida albicans; 1000 ppm a.i.) | SA rating (Staphylococcus aureus; 500 ppm a.i.) | SA rating (Staphylococcus aureus; 1000 ppm a.i.) | SC rating (Saccharomyces cerevisiae; 500 ppm a.i.) | SC rating (Saccharomyces cerevisiae; 1000 ppm a.i.) | Bacteria Mean Score (Bacteria; 500 ppm a.i.) | Bacteria Mean Score (Bacteria; 1000 ppm a.i.) | ML rating (Micrococcus luteus; 500 ppm a.i.) | ML rating (Micrococcus luteus; 1000 ppm a.i.) | AN rating (Aspergillus niger; 500 ppm a.i.) | AN rating (Aspergillus niger; 1000 ppm a.i.) | PM rating (Proteus mirabilis; 500 ppm a.i.) | PM rating (Proteus mirabilis; 1000 ppm a.i.) | Aq. Solubility (ppm) [1] | EC rating (Escherichia coli; 500 ppm a.i.) | EC rating (Escherichia coli; 1000 ppm a.i.) | PF rating (Penicillium funiculosum; 500 ppm a.i.) | PF rating (Penicillium funiculosum; 1000 ppm a.i.) | Fungi Mean Score (Fungi [2]; 500 ppm a.i.) | further results
1 | O=C(O)COc1ccc(Cl)cc1Cl [2,4-D, 2,4-Dichlorphenoxy acetic acid] | 5 | 5 | 3 | 3 | 1 | 3 | 1.0 | 3.5 | 2 | 5 | 0 | 5 | 1 | 2 | 600 ppm | 0 | 3 | 3 | 5 | 2.8 | Fungi Mean Score (Fungi [2]; 1000 ppm a.i.): 4.6; CF rating (Citrobacter freundii; 500 ppm a.i.): 0; CF rating (Citrobacter freundii; 1000 ppm a.i.): 5; AA rating (Alternaria alternata; 500 ppm a.i.): 5; AA rating (Alternaria alternata; 1000 ppm a.i.): 5; PA rating (Pseudomonas aeruginosa; 500 ppm a.i.): 0; PA rating (Pseudomonas aeruginosa; 1000 ppm a.i.): 3
2 | CC(Cc1ccc(C(C)(C)C)cc1)CN1C[C@@H](C)O[C@@H](C)C1 (stereo partly drawn) [Fenpropimorph, 4-[2-Methyl-3-(p-tert.butyl-phenyl)-propyl]-2,6-cis-dimethylmorpholin] | 5 | 5 | 0 | 0 | 5 | 5 | 0.0 | 0.3 | 0 | 2 | 5 | 5 | 0 | 0 |  | 0 | 0 | 5 | 5 | 5.0 | Spectrum of activity (test bacteria and fungi): only display antifungal activity; Improvement against fungal growth on the wood surface (fungi [3]): only showed marginal improvement; Improvement against fungal growth on the plaster surface (fungi [4]; as applied or after leaching): exhibited an improvement; MEAN FUNGAL GROWTH RATING - PLASTER SUBSTRATE 28 days leached (fungi [4]): 3 (3=growth on 10-30% of test face); MEAN FUNGAL GROWTH RATING - PLASTER SUBSTRATE 56 days leached (fungi [4]): 3 (3=growth on 10-30% of test face); % Improved After 56 days leached (fungal, plaster) (fungi [4]): 14%; MEAN FUNGAL GROWTH RATING - PLASTER SUBSTRATE 28 days as applied (fungi [4]): 4 (4=growth on 30-70% of test face); MEAN FUNGAL GROWTH RATING - PLASTER SUBSTRATE 56 days as applied (fungi [4]): 4 (4=growth on 30-70% of test face); % Improved After 56 days as applied (fungal, plaster) (fungi [4]): 20%; Fungi Mean Score (Fungi [2]; 1000 ppm a.i.): 5.0; CF rating (Citrobacter freundii; 500 ppm a.i.): 0; CF rating (Citrobacter freundii; 1000 ppm a.i.): 0; MEAN ALGAL GROWTH RATING 28 days (algae): 2 (2=growth on 1-10% of test face); MEAN ALGAL GROWTH RATING 56 days (algae): 3 (3=growth on 10-30% of test face); % Improved after 56 days (algal growth) (algae): 25.0%; Improvement against algal growth on the plaster surface (algae): exhibited an improvement; AA rating (Alternaria alternata; 500 ppm a.i.): 5; AA rating (Alternaria alternata; 1000 ppm a.i.): 5; PA rating (Pseudomonas aeruginosa; 500 ppm a.i.): 0; PA rating (Pseudomonas aeruginosa; 1000 ppm a.i.): 0
3 | O=C(Nc1ccc(F)cc1)c1cccc(Oc2cccc(C(F)(F)F)c2)n1 [Picolinafen] |  |  |  |  |  |  |  |  |  |  |  |  |  |  | 0.004 ppm |  |  |  |  |  | Improvement against fungal growth on the wood surface (fungi [3]): only showed marginal improvement; MEAN FUNGAL GROWTH RATING - PLASTER SUBSTRATE 28 days leached (fungi [4]): 3 (3=growth on 10-30% of test face); MEAN FUNGAL GROWTH RATING - PLASTER SUBSTRATE 56 days leached (fungi [4]): 3.5; % Improved After 56 days leached (fungal, plaster) (fungi [4]): 0%; MEAN FUNGAL GROWTH RATING - PLASTER SUBSTRATE 28 days as applied (fungi [4]): 4.5; MEAN FUNGAL GROWTH RATING - PLASTER SUBSTRATE 56 days as applied (fungi [4]): 5 (5=growth on 70-100% of test face); % Improved After 56 days as applied (fungal, plaster) (fungi [4]): 0%; MEAN ALGAL GROWTH RATING 28 days (algae): 1.5; MEAN ALGAL GROWTH RATING 56 days (algae): 2.5; % Improved after 56 days (algal growth) (algae): 37.5%; Improvement against algal growth on the plaster surface (algae): exhibited an improvement
4 | Metiram |  |  |  |  |  |  |  |  |  |  |  |  |  |  | 2.7 ppm |  |  |  |  |  | 
